{"source": "patent US8580957B2", "about": "“Thetrahydroquinolines derivatives as bromodomain inhibitors” (GlaxoSmithKline LLC, priority 2009, dated 2013)", "key": {"[1]": {"tested_on": "LPS induced IL-6 secretion from whole blood", "test": "Measurement of LPS Induced IL-6 Secretion from Whole Blood", "type": "cell-based", "details": "LPS 200 ng/ml, 24 hours, read-out: pIC50 (IL-6 levels) (converted)", "method": "Measurement of LPS Induced IL-6 Secretion from Whole Blood\n(§1) Activation of monocytic cells by agonists of toll-like receptors such as bacterial lipopolysaccharide (LPS) results in production of key inflammatory mediators including IL-6. Such pathways are widely considered to be central to the pathophysiology of a range of auto-immune and inflammatory disorders.\nCompounds to be tested are diluted to give a range of appropriate concentrations of which 1 ul of the diluted stocks is added to a 96 well plate. Following addition of whole blood (130 ul) the plates are incubated at 37 degrees (5% CO2) for 30 min before the addition of 10 ul of 2.8 ug/ml LPS, diluted in complete RPMI 1640 (final concentration=200 ng/ml), to give a total volume of 140 ul per well. After further incubation for 24 hours at 37 degrees, 140 ul of PBS are added to each well. The plates are sealed, shaken for 10 minutes and then centrifuged (2500 rpm×10 min). 100 ul of the supernatant are removed and IL-6 levels assayed by immunoassay (typically by MesoScale Discovery technology) either immediately or following storage at −20 degrees. Concentration response curves for each compound was generated from the data and an IC50 value was calculated."}, "[2]": {"tested_on": "TNFα levels in LPS stimulated whole blood", "test": "LPS Stimulated Whole Blood Measuring TNFα Levels Assay", "type": "cell-based", "details": "LPS 200 ng/ml, 24 hours, read-out: pIC50 (TNFα levels) (converted)", "method": "LPS Stimulated Whole Blood Measuring TNFα Levels Assay\nas §1, with “TNFα.” for “IL-6.”\nCompounds to be tested are diluted to give a range of appropriate concentrations and 1 ul of the dilution stocks is added to wells of a 96 plate. Following addition of whole blood (130 ul) the plates are incubated at 37 degrees (5% CO2) for 30 min before the addition of 10 ul of 2.8 ug/ml LPS, diluted in complete RPMI 1640 (final concentration=200 ng/ml), to give a total volume of 140 ul per well. After further incubation for 24 hours at 37 degrees, 140 ul of PBS are added to each well. The plates are sealed, shaken for 10 minutes and then centrifuged (2500 rpm×10 min). 100 ul of the supernatant are removed and TNFα levels assayed by immunoassay (typically by MesoScale Discovery technology) either immediately or following storage at −20 degrees. Dose response curves for each compound was generated from the data and an IC50 value was calculated."}, "[3]": {"tested_on": "Human cell lines (n=33 comprising 15 heme cell lines, 14 breast cell lines and 4 other cell lines)", "test": "Oncology Growth Assay (CellTiter-Glo)", "type": "cell-based", "details": "72 hours", "method": "Human cell lines (n=33 comprising 15 heme cell lines, 14 breast cell lines and 4 other cell lines) were cultured in RPMI-1640 containing 10% fetal bovine serum, 1000 viable cells per well were plated in 384-well black flat bottom polystyrene plates (Greiner #781086) in 48 μl of culture media. All plates were placed at 5% CO2, 37° C. overnight. The following day one plate was harvested with CellTiter-Glo (CTG, Promega #G7573) for a time equal to 0 (T0) measurement and compound (20 point titration from 14.7 uM to […]) was added to the remaining plates. The final concentration of DMSO in all wells was 0.15%. Cells were incubated for 72 hours or the indicated time and each plate was developed with CellTiter-Glo reagent using a volume equivalent to the cell culture volume in the wells. Plates were shaken for approximately 2 minutes and chemiluminescent signal was read on the Analyst GT (Molecular Devices) or EnVision Plate Reader (Perkin Elmer).\nResults were expressed as a percent of the TO and plotted against the compound concentration. The TO value was normalized to 100% and represents the number of cells at time of compound addition and the concentration response data were fit with a 4 parameter curve fit using XLfit software (model 205). The concentration that inhibited cell growth by 50% (gIC50) is the midpoint of the ‘growth window’ (between the TO and DMSO control). The Ymin−T0 value is determined by subtracting the T0 value (100%) from the Ymin value (%) determined from the fit of the concentration response curve. Values from the wells with no cells were subtracted from all samples for background correction."}, "[4]": {"tested_on": "Balb/c male mice given a lethal dose of LPS", "test": "In Vivo Mouse Endotoxemia Model", "details": "15 mg/kg LPS i.p.; compound 10 mg/kg intravenously 90 min later; summed across multiple repeat experiments", "from_the_text": "In Vivo Mouse Endotoxemia Model\nHigh doses of Endotoxin (bacterial lipopolysaccharide) administered to animals produce a profound shock syndrome including a strong inflammatory response, dysregulation of cardiovascular function, organ failure and ultimately mortality. This pattern of response is very similar to human sepsis and septic shock, where the body's response to a significant bacterial infection can be similarly life threatening.\nTo test the compounds of the invention groups of eight Balb/c male mice were given a lethal dose of 15 mg/kg LPS by intraperitoneal injection. Ninety minutes later, animals were dosed intravenously with vehicle (20% cyclodextrin 1% ethanol in apyrogen water) or compound (10 mg/kg). The survival of animals was monitored at 4 days.\nNumbers of animals surviving at 4 days (summed across multiple repeat experiments)"}}, "note": "Structures can show the parent of a compound that is named as a salt. Where two headings read alike, the source gives them in different places."}
{"smiles": "CC(=O)N1c2ccc(-c3ccc(CN4CCCCC4)cc3)cc2[C@@H](Nc2ccc(F)cc2)C[C@H]1C", "note": "(racemic) [Example 11, 1-Acetyl-2-methyl-N-(4-fluorophenyl)-6-[4-(1-piperidinylmethyl)phenyl]-1,2,3,4-tetrahydro-4-quinolinamine]", "values": [{"measurement": "melting point", "result": 106, "unit": "°C"}]}
{"smiles": "CC(=O)N1c2ccc(-c3ccc(CN(C)C)cc3)cc2[C@@H](Nc2ccccc2)C[C@H]1C", "note": "(racemic) [Example 35, 1-acetyl-6-{4-[(dimethylamino)methyl]phenyl}-2-methyl-N-phenyl-1,2,3,4-tetrahydro-4-quinolinamine]", "values": [{"measurement": "melting point", "result": 90, "unit": "°C"}]}
{"smiles": "CC(=O)N1c2ccc(-c3ccc(C#N)cc3)cc2[C@@H](Nc2ccc(F)cc2)C[C@H]1C", "note": "(racemic) [Example 62, 4-{1-acetyl-4-[(4-fluorophenyl)amino]-2-methyl-1,2,3,4-tetrahydro-6-quinolinyl}benzonitrile]", "values": [{"measurement": "melting point", "result": 140, "unit": "°C"}]}
{"smiles": "CC(=O)N1c2ccc(-c3ccc(CN4CCCCC4)cc3)cc2[C@@H](Nc2ccc(F)cn2)C[C@H]1C", "note": "(racemic) [Example 137, (cis)-1-Acetyl-N-(5-fluoro-2-pyridinyl)-2-methyl-6-[4-(1-piperidinylmethyl)phenyl]-1,2,3,4-tetrahydro-4-quinolinamine formate salt]", "values": [{"measurement": "IC50", "setting": "[1]", "result": "≤ 10", "unit": "µM"}, {"measurement": "IC50", "setting": "[2]", "result": "≤ 10", "unit": "µM"}]}
{"smiles": "CCN(c1ccccc1)[C@H]1C[C@@H](C)N(C(C)=O)c2ccc(-c3ccccc3)cc21", "note": "(stereo in doubt) [Example 87, 1-acetyl-N-ethyl-2-methyl-N,6-diphenyl-1,2,3,4-tetrahydro-4-quinolinamine]", "values": [{"measurement": "melting point", "result": 121, "unit": "°C"}, {"measurement": "IC50", "setting": "[2]", "result": "≤ 10", "unit": "µM"}]}
{"smiles": "CCNC(=O)c1ccc(-c2ccc3c(c2)[C@@H](Nc2ccc(Cl)cc2)C[C@@H](C)N3C(C)=O)cc1", "note": "(stereo in doubt) [Example 101, 4-{1-Acetyl-4-[(4-chlorophenyl)amino]-2-methyl-1,2,3,4-tetrahydro-6-quinolinyl}-N-ethylbenzamide]", "values": [{"measurement": "melting point", "result": 134, "unit": "°C"}]}
{"smiles": "CCOC(=O)c1ccc(-c2ccc3c(c2)[C@@H](Nc2ccc(Cl)cc2)C[C@@H](C)N3C(C)=O)cc1", "note": "(stereo in doubt) [Example 119, Ethyl 4-{1-acetyl-4-[(4-chlorophenyl)amino]-2-methyl-1,2,3,4-tetrahydro-6-quinolinyl}benzoate]", "values": [{"measurement": "melting point", "result": 114, "unit": "°C"}]}
{"smiles": "CC(=O)N1c2ccc(-c3ccc(-c4nn[nH]n4)cc3)cc2[C@@H](Nc2ccc(Cl)cc2)C[C@H]1C", "note": "(stereo in doubt) [Example 121, 1-Acetyl-N-(4-chlorophenyl)-2-methyl-6-[4-(1H-tetrazol-5-yl)phenyl]-1,2,3,4-tetrahydro-4-quinolinamine]", "values": [{"measurement": "melting point", "result": 250, "unit": "°C"}]}
{"smiles": "CC(=O)N1c2ccc(-c3ccc(C(=O)O)cc3)cc2[C@H](Nc2ccc(Cl)cc2)C[C@@H]1C", "note": "[Example 6, 4-{(2S,4R)-1-acetyl-4-[(4-chlorophenyl)amino]-2-methyl-1,2,3,4-tetrahydro-6-quinolinyl}benzoic acid]", "values": [{"measurement": "IC50", "setting": "[1]", "result": "≤ 10", "unit": "µM"}, {"measurement": "IC50", "setting": "[3]; all 33 cell lines, read-out: gIC50 across all cell lines", "result": "0.035 to 9.2", "unit": "µM"}, {"measurement": "IC50", "setting": "[3]; breast cell lines, read-out: gIC50 for breast cell lines", "result": "0.04 to 9.2", "unit": "µM"}, {"measurement": "IC50", "setting": "[3]; heme cell lines, read-out: gIC50 for heme cell lines", "result": "0.035 to 0.844", "unit": "µM"}, {"measurement": "Animals surviving at 4 days (percent)", "setting": "[4]", "result": 58, "unit": "%"}, {"measurement": "Numbers of animals surviving at 4 days", "setting": "[4]", "result": "14/24"}]}
{"smiles": "COC(=O)c1ccc(-c2ccc3c(c2)C(Nc2ccc(C#N)cc2)CC(C)N3C(C)=O)cc1", "note": "(stereo not shown) [Example 82]", "values": [{"measurement": "melting point", "result": 252, "unit": "°C"}]}
{"smiles": "CC(=O)N1c2ccc(-c3ccc(C(=O)N4CCOCC4)cc3)cc2C(Nc2ccc(Cl)cc2)CC1C", "note": "(stereo not shown) [Example 109]", "values": [{"measurement": "melting point", "result": 146, "unit": "°C"}, {"measurement": "IC50", "setting": "[2]", "result": "≤ 10", "unit": "µM"}]}
{"smiles": "CC(=O)N1c2ccc(-c3ccc(CN4CCCCC4)cc3)cc2[C@H](Nc2ccccc2)C[C@@H]1C", "note": "[Example 164, (2S,4R)-1-Acetyl-2-methyl-N-phenyl-6-[4-(1-piperidinylmethyl)phenyl]-1,2,3,4-tetrahydro-4-quinolinamine]", "values": [{"measurement": "IC50", "setting": "[1]", "result": "≤ 10", "unit": "µM"}, {"measurement": "IC50", "setting": "[2]", "result": "≤ 10", "unit": "µM"}]}
{"smiles": "CCC[C@@H]1C[C@H](Nc2ccc(C)cc2)c2cc(-c3ccc(CN4CCCCC4)cc3)ccc2N1C(C)=O", "note": "[Example 189]", "values": [{"measurement": "IC50", "setting": "[2]", "result": "≤ 10", "unit": "µM"}]}
